Experimental data taken from ChEMBL document CHEMBL4308841, “Synthesis, in vitro antiproliferative activity, and kinase inhibitory effects of pyrazole-containing diarylureas and diarylamides” (Eur J Med Chem, 2018).

Experiments:
SK-MEL-2 [1] = assay: Growth inhibition of human SK-MEL-2 cells assessed as cell growth at 10 uM incubated for 48 hrs by sulforhodamine B assay relative to control; format: functional; conditions: SK-MEL-2, 48 h, read-out: Activity
COLO 205 [2] = assay: Growth inhibition of human COLO205 cells incubated for 48 hrs by sulforhodamine B assay; format: functional, cell-based; conditions: COLO 205, 48 h
SN12C = assay: Growth inhibition of human SN12C cells incubated for 48 hrs by sulforhodamine B assay; format: functional, cell-based
Hs-578T [3] = assay: Growth inhibition of human Hs578T cells incubated for 48 hrs by sulforhodamine B assay; format: functional, cell-based
T47D [4] = assay: Growth inhibition of human T47D cells incubated for 48 hrs by sulforhodamine B assay; format: functional, cell-based
CCRF-CEM = assay: Growth inhibition of human CCRF-CEM cells assessed as cell growth at 0.01 uM incubated for 48 hrs by sulforhodamine B assay relative to control; format: functional; conditions: read-out: Activity
SR = assay: Growth inhibition of human SR cells assessed as cell growth at 0.01 uM incubated for 48 hrs by sulforhodamine B assay relative to control; format: functional; conditions: read-out: Activity
SF-268 = assay: Growth inhibition of human SF268 cells assessed as cell growth at 0.01 uM incubated for 48 hrs by sulforhodamine B assay relative to control; format: functional; conditions: SF-268, 48 h, read-out: Activity
SF-295 = assay: Growth inhibition of human SF295 cells assessed as cell growth at 0.01 uM incubated for 48 hrs by sulforhodamine B assay relative to control; format: functional; conditions: SF-295, 48 h, read-out: Activity
LOX IMVI = assay: Growth inhibition of human LOXIMVI cells assessed as cell growth at 0.01 uM incubated for 48 hrs by sulforhodamine B assay relative to control; format: functional; conditions: read-out: Activity
SK-MEL-2 [5] = assay: Growth inhibition of human SK-MEL-2 cells assessed as cell growth at 0.01 uM incubated for 48 hrs by sulforhodamine B assay relative to control; format: functional; conditions: SK-MEL-2, 48 h, read-out: Activity
UACC-257 = assay: Growth inhibition of human UACC257 cells assessed as cell growth at 0.01 uM incubated for 48 hrs by sulforhodamine B assay relative to control; format: functional; conditions: UACC-257, 48 h, read-out: Activity
A498 = assay: Growth inhibition of human A498 cells assessed as cell growth at 0.01 uM incubated for 48 hrs by sulforhodamine B assay relative to control; format: functional; conditions: A498, 48 h, read-out: Activity
RXF 393 = assay: Growth inhibition of human RXF393 cells assessed as cell growth at 0.01 uM incubated for 48 hrs by sulforhodamine B assay relative to control; format: functional; conditions: RXF 393, 48 h, read-out: Activity
A549 = assay: Growth inhibition of human A549/ATCC cells assessed as cell growth at 0.1 uM incubated for 48 hrs by sulforhodamine B assay relative to control; format: functional; conditions: A549, 48 h, read-out: Activity
ACHN = assay: Growth inhibition of human ACHN cells assessed as cell growth at 0.1 uM incubated for 48 hrs by sulforhodamine B assay relative to control; format: functional; conditions: read-out: Activity
MDA-MB-231 [6] = assay: Growth inhibition of human MDA-MB-231 cells assessed as cell growth at 0.1 uM incubated for 48 hrs by sulforhodamine B assay relative to control; format: functional; conditions: MDA-MB-231, 48 h, read-out: Activity
BT-549 = assay: Growth inhibition of human BT549 cells assessed as cell growth at 0.1 uM incubated for 48 hrs by sulforhodamine B assay relative to control; format: functional; conditions: BT-549, 48 h, read-out: Activity
OVCAR-3 [7] = assay: Growth inhibition of human OVCAR3 cells assessed as cell growth at 1 uM incubated for 48 hrs by sulforhodamine B assay relative to control; format: functional; conditions: OVCAR-3, 48 h, read-out: Activity
PC-3 = assay: Growth inhibition of human PC3 cells assessed as cell growth at 1 uM incubated for 48 hrs by sulforhodamine B assay relative to control; format: functional; conditions: PC-3, 48 h, read-out: Activity
COLO 205 [8] = assay: Growth inhibition of human COLO205 cells assessed as cell growth at 100 uM incubated for 48 hrs by sulforhodamine B assay relative to control; format: functional; conditions: COLO 205, 48 h, read-out: Activity
SF-539 = assay: Growth inhibition of human SF539 cells assessed as cell growth at 100 uM incubated for 48 hrs by sulforhodamine B assay relative to control; format: functional; conditions: SF-539, 48 h, read-out: Activity
Malme-3M = assay: Growth inhibition of human MALME-3M cells assessed as cell growth at 100 uM incubated for 48 hrs by sulforhodamine B assay relative to control; format: functional; conditions: read-out: Activity
SK-MEL-28 = assay: Growth inhibition of human SK-MEL-28 cells assessed as cell growth at 100 uM incubated for 48 hrs by sulforhodamine B assay relative to control; format: functional; conditions: SK-MEL-28, 48 h, read-out: Activity
IGROV-1 = assay: Growth inhibition of human IGROV1 cells assessed as cell growth at 100 uM incubated for 48 hrs by sulforhodamine B assay relative to control; format: functional; conditions: IGROV-1, 48 h, read-out: Activity
OVCAR-3 [9] = assay: Growth inhibition of human OVCAR3 cells assessed as cell growth at 100 uM incubated for 48 hrs by sulforhodamine B assay relative to control; format: functional; conditions: OVCAR-3, 48 h, read-out: Activity
OVCAR-5 = assay: Growth inhibition of human OVCAR5 cells assessed as cell growth at 100 uM incubated for 48 hrs by sulforhodamine B assay relative to control; format: functional; conditions: OVCAR-5, 48 h, read-out: Activity
786-0 = assay: Growth inhibition of human 786-0 cells assessed as cell growth at 100 uM incubated for 48 hrs by sulforhodamine B assay relative to control; format: functional; conditions: 786-0, 48 h, read-out: Activity
UO-31 = assay: Growth inhibition of human UO31 cells assessed as cell growth at 100 uM incubated for 48 hrs by sulforhodamine B assay relative to control; format: functional; conditions: UO-31, 48 h, read-out: Activity
MDA-MB-231 [10] = assay: Growth inhibition of human MDA-MB-231 cells assessed as cell growth at 100 uM incubated for 48 hrs by sulforhodamine B assay relative to control; format: functional; conditions: MDA-MB-231, 48 h, read-out: Activity
Hs-578T [11] = assay: Growth inhibition of human Hs578T cells assessed as cell growth at 100 uM incubated for 48 hrs by sulforhodamine B assay relative to control; format: functional; conditions: read-out: Activity
T47D [12] = assay: Growth inhibition of human T47D cells assessed as cell growth at 100 uM incubated for 48 hrs by sulforhodamine B assay relative to control; format: functional; conditions: read-out: Activity
[13] = read-out: LC50 (the source's name)
[14] = read-out: pLC50 (the source's name) (converted)

**Q.** What does the source list for COc1cc(Cl)cc(-c2nn(-c3cccc(NC(=O)c4cccc(C(F)(F)F)c4)c3)cc2-c2ccncc2)c1?
**A.** growth at 10 µM (SK-MEL-2 [1]): 56.4%; GI50 (COLO 205 [2]; read-out: GI50): 3.37 µM; CC50 (COLO 205 [2]; [13]): > 100 µM; TGI (COLO 205 [2]; read-out: TGI): > 100 µM; GI50 (COLO 205 [2]; read-out: pGI50 (converted)): 33.9 µM; CC50 (COLO 205 [2]; [14]): > 100 µM; TGI (COLO 205 [2]; read-out: pTGI (converted)): > 100 µM; GI50 (SN12C; read-out: GI50): > 100 µM; LC50 (SN12C; read-out: LC50): > 100 µM; TGI (SN12C; read-out: TGI): > 100 µM; GI50 (SN12C; read-out: pGI50 (converted)): > 100 µM; LC50 (SN12C; read-out: pLC50 (converted)): > 100 µM; TGI (SN12C; read-out: pTGI (converted)): > 100 µM; GI50 (Hs-578T [3]; read-out: GI50): > 100 µM; CC50 (Hs-578T [3]; [13]): > 100 µM; TGI (Hs-578T [3]; read-out: TGI): > 100 µM; GI50 (Hs-578T [3]; read-out: pGI50 (converted)): > 100 µM; CC50 (Hs-578T [3]; [14]): > 100 µM; TGI (Hs-578T [3]; read-out: pTGI (converted)): > 100 µM; GI50 (T47D [4]; read-out: GI50): 4.59 µM; CC50 (T47D [4]; [13]): > 100 µM; TGI (T47D [4]; read-out: TGI): > 100 µM; GI50 (T47D [4]; read-out: pGI50 (converted)): 4.68 µM; CC50 (T47D [4]; [14]): > 100 µM; TGI (T47D [4]; read-out: pTGI (converted)): > 100 µM; growth at 0.01 µM (CCRF-CEM): 96%; growth at 0.01 µM (SR): 57%; growth at 0.01 µM (SF-268): 101%; growth at 0.01 µM (SF-295): 98%; growth at 0.01 µM (LOX IMVI): 100%; growth at 0.01 µM (SK-MEL-2 [5]): 52%; growth at 0.01 µM (UACC-257): 91%; growth at 0.01 µM (A498): 58%; growth at 0.01 µM (RXF 393): 58%; growth at 0.1 µM (A549): 93%; growth at 0.1 µM (ACHN): 98%; growth at 0.1 µM (MDA-MB-231 [6]): 90%; growth at 0.1 µM (BT-549): 94%; growth at 1 µM (OVCAR-3 [7]): 102%; growth at 1 µM (PC-3): 73%; growth at 100 µM (COLO 205 [8]): 45%; growth at 100 µM (SF-539): 53%; growth at 100 µM (Malme-3M): 55%; growth at 100 µM (SK-MEL-28): 75%; growth at 100 µM (IGROV-1): 70%; growth at 100 µM (OVCAR-3 [9]): 38%; growth at 100 µM (OVCAR-5): 59%; growth at 100 µM (786-0): 44%; growth at 100 µM (UO-31): 37%; growth at 100 µM (MDA-MB-231 [10]): -14%; growth at 100 µM (Hs-578T [11]): 53%; growth at 100 µM (T47D [12]): 15%

**Q.** What does the source list for COc1cc(Cl)cc(-c2nn(-c3cccc(NC(=O)Nc4cccc(C(F)(F)F)c4)c3)cc2-c2ccncc2)c1?
**A.** growth at 10 µM (SK-MEL-2 [1]): -36.7%; GI50 (COLO 205 [2]; read-out: GI50): 1.53 µM; CC50 (COLO 205 [2]; [13]): 65.5 µM; TGI (COLO 205 [2]; read-out: TGI): 31.7 µM; GI50 (COLO 205 [2]; read-out: pGI50 (converted)): 1.51 µM; CC50 (COLO 205 [2]; [14]): 6.61 µM; TGI (COLO 205 [2]; read-out: pTGI (converted)): 3.16 µM; GI50 (SN12C; read-out: GI50): 2.06 µM; LC50 (SN12C; read-out: LC50): > 100 µM; TGI (SN12C; read-out: TGI): 15.5 µM; GI50 (SN12C; read-out: pGI50 (converted)): 2.04 µM; LC50 (SN12C; read-out: pLC50 (converted)): > 100 µM; TGI (SN12C; read-out: pTGI (converted)): 18.6 µM; GI50 (Hs-578T [3]; read-out: GI50): 4.05 µM; CC50 (Hs-578T [3]; [13]): > 100 µM; TGI (Hs-578T [3]; read-out: TGI): > 100 µM; GI50 (Hs-578T [3]; read-out: pGI50 (converted)): 4.07 µM; CC50 (Hs-578T [3]; [14]): > 100 µM; TGI (Hs-578T [3]; read-out: pTGI (converted)): > 100 µM; GI50 (T47D [4]; read-out: GI50): 1.23 µM; CC50 (T47D [4]; [13]): > 100 µM; TGI (T47D [4]; read-out: TGI): 59.9 µM; GI50 (T47D [4]; read-out: pGI50 (converted)): 1.23 µM; CC50 (T47D [4]; [14]): > 100 µM; TGI (T47D [4]; read-out: pTGI (converted)): 6.92 µM; growth at 0.01 µM (CCRF-CEM): 98%; growth at 0.01 µM (SR): 89%; growth at 0.01 µM (SF-268): 97%; growth at 0.01 µM (SF-295): 94%; growth at 0.01 µM (LOX IMVI): 96%; growth at 0.01 µM (SK-MEL-2 [5]): 95%; growth at 0.01 µM (UACC-257): 90%; growth at 0.01 µM (A498): 95%; growth at 0.01 µM (RXF 393): 93%; growth at 0.1 µM (A549): 96%; growth at 0.1 µM (ACHN): 92%; growth at 0.1 µM (MDA-MB-231 [6]): 103%; growth at 0.1 µM (BT-549): 114%; growth at 1 µM (OVCAR-3 [7]): 38%; growth at 1 µM (PC-3): 27%; growth at 100 µM (COLO 205 [8]): -95%; growth at 100 µM (SF-539): -72%; growth at 100 µM (Malme-3M): -26%; growth at 100 µM (SK-MEL-28): -25%; growth at 100 µM (IGROV-1): -12%; growth at 100 µM (OVCAR-3 [9]): -41%; growth at 100 µM (OVCAR-5): -13%; growth at 100 µM (786-0): -57%; growth at 100 µM (UO-31): -20%; growth at 100 µM (MDA-MB-231 [10]): -43%; growth at 100 µM (Hs-578T [11]): 21%; growth at 100 µM (T47D [12]): -25%
